The values below come from patent US20240285670A1, “THERAPEUTIC TREATMENT OF TUMORS BY BLOCKING THE HEME SYNTHESIS-EXPORT AXIS” (Università degli Studi di Torino, priority 2021, published 2024).

The subject of this assay is SHSY5Y cells. As to the kind of experiment: Proliferation of SHSY5Y cells by crystal violet staining. Particulars: 5 mM ALA at day 0, no medium refresh. Format: cell-based, human. The protocol:
(A) Heme content in SHSY5Y cells non-treated (NT) or treated with 5 mM ALA for 15 hours. Values are expressed as pmol heme/mg protein. Data represent mean±SEM, n=3; *=P<0.05. (B, C) qRT-PCR analysis of the expression of ALAS1 (B) and FLVCR1a (C) in SHSY5Y cells non-treated (NT) or treated with 5 mM ALA for 15 hours. Transcript abundance, normalized to beta-actin mRNA expression, is expressed as a fold increase over a calibrator sample. Data represent mean±SEM, n=4. For statistical analyses, an unpaired Student's t-test was used; *p<0.05. (D) qRT-PCR analysis of the expression of ALAS1 in SKCO1 cells untreated (NT) or treated with 5 mM ALA for 24 hours. Transcript abundance, normalized to beta-actin mRNA expression, is expressed as a fold increase over a calibrator sample. Data represent mean±SEM, n=5. […] Band intensities were measured by densitometry and normalized to beta-actin expression. […] (F) Proliferation of SHSY5Y cells assessed by crystal violet staining at different time points (starting from the day after plating, named “day 0”). Treatment with 5 mM ALA occurred at “day 0” and cells were monitored until the end of the experiment without medium refresh. […] (G) SKCO1 cells viability measured by the CellTiter-Fluor Cell Viability Assay (Promega, Madison, WI USA, catalog n°G6080) at different time points, starting from the day after plating (named “day 0”), as a readout of cell proliferation. […]

Structures are written as SMILES.

Take `Cl.NCC(=O)CCC(=O)O` [5-ALA, 5-Aminolevulinic acid hydrochloride]: the cell proliferation entry is recorded as “reduced SHSY5Y cell proliferation”.
